The experiment deals with human TYK2 (JH2domain-pseudokinase) (Homo sapiens (Human), UniProt P29597). Description: TYK2 JH2 Domain Binding Assay (KINOMEscan). As for the experimental part:
Binding constants for compounds of the present invention against the JH2 domain were determined by the following protocol for a KINOMEscan® assay (DiscoveRx). A fusion protein of a partial length construct of human TYK2 (JH2domain-pseudokinase) (amino acids G556 to D888 based on reference sequence NP_003322.3) and the DNA binding domain of NFkB was expressed in transiently transfected HEK293 cells. From these HEK 293 cells, extracts were prepared in M-PER extraction buffer (Pierce) in the presence of Protease Inhibitor Cocktail Complete (Roche) and Phosphatase Inhibitor Cocktail Set II (Merck) per manufacturers' instructions. The TYK2 (JH2domain-pseudokinase) fusion protein was labeled with a chimeric double-stranded DNA tag containing the NFkB binding site (5′-[…]-3′) fused to an amplicon for qPCR readout, which was added directly to the expression extract (the final concentration of DNA-tag in the binding reaction is 0.1 nM).
The liganded beads were blocked with excess biotin and washed with blocking buffer (SeaBlock (Pierce), 1% BSA, 0.05% Tween 20, 1 mM DTT) to remove unbound ligand and to reduce nonspecific binding.
Extracts were used directly in binding assays without any enzyme purification steps at a ≥10,000-fold overall stock dilution (final DNA-tagged enzyme concentration <0.1 nM). Extracts were loaded with DNA-tag and diluted into the binding reaction in a two step process. First extracts were diluted 1:100 in 1× binding buffer (PBS/0.05% Tween 20/10 mM DTT/0.1% BSA/2 μg/ml sonicated salmon sperm DNA) containing 10 nM DNA-tag. This dilution was allowed to equilibrate at room temperature for 15 minutes and then subsequently diluted 1:100 in 1× binding buffer. […] Kds were determined using an 11-point 3-fold compound dilution series with three DMSO control points. […] The compounds were then diluted directly into the assays such that the final concentration of DMSO was 0.9%. All reactions performed in polypropylene 384-well plates. Each was a final volume of 0.02 mL. Assays were incubated with shaking for 1 hour at room temperature. Then the beads were pelleted and washed with wash buffer (1×PBS, 0.05% Tween 20) to remove displaced kinase and test compound. […] The qPCR protocol consisted of a 10 minute hot start at 95° C., followed by 35 cycles of 95° C. for 15 seconds, 60° C. for 1 minute.
Kds were determined using an 11-point 3-fold compound dilution series with three DMSO control points. […] The compounds were then diluted directly into the assays such that the final concentration of DMSO was 0.9%. The Kds were determined using a compound top concentration of 30,000 nM. Kd measurements were performed in duplicate.
Binding constants (Kds) were calculated with a standard dose-response curve using the Hill equation: […]
The Hill Slope was set to −1.

A word on the pKd: it is the negative decadic logarithm of the Kd, by convention in mol/L. Read a low pKd as a large Kd.

pKd: −log10 of the molar value.

Chain of human TYK2 (JH2domain-pseudokinase) (P29597 556-888): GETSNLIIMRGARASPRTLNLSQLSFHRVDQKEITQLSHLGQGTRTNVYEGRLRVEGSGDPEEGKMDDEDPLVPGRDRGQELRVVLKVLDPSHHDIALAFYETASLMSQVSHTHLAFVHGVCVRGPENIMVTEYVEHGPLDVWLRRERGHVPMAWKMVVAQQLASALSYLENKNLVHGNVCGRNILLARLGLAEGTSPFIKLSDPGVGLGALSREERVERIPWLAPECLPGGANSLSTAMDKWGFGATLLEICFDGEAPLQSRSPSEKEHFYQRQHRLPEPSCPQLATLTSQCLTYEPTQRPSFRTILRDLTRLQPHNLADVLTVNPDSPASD

For the molecule `CNc1cc(-c2cn([C@@H]3CCCOC3)c3ncccc23)nc2c(C(N)=O)cnn12` [I-1255], the negative logarithm of the Kd (pKd) is 9.00 to 9.70.
The value for `CNc1cc(Nc2cccn3cnnc23)nc2c(C(=O)N[C@@H]3CC[C@H]3OC)cnn12` [I-1342] was more than 9.70.
Then `CNc1cc(Nc2cccn3ccnc23)nc2c(C(=O)N[C@H]3CCC[C@]3(C)O)cnn12` [I-1239], with more than 9.70; and `CNc1cc(Nc2cccn([C@H]3CCC[C@H]3O)c2=O)nc2c(C(=O)N[C@@H]3CC[C@H]3OC)cnn12` [I-1372], with 9.00 to 9.70.
Then `CNc1cc(Nc2cccn([C@@H]3CCCC[C@@H]3O)c2=O)nc2c(C(=O)N[C@@H]3CC[C@H]3OC)cnn12` [I-1339], with 9.00 to 9.70; and `CNc1cc(Nc2cccn([C@@H]3CCC[C@H](O)C3)c2=O)nc2c(C(=O)N[C@H]3CC[C@@H]3OC)cnn12` [I-1191], with more than 9.70.
On to `CNc1cc(Nc2cccn(C3CC(F)(F)C3)c2=O)nc2c(C(=O)N[C@H]3CC[C@H]3O)cnn12` [I-1306], for which the negative logarithm of the Kd (pKd) is 8.00 to 9.00.
Then `CNc1cc(Nc2cccn(C(C)C)c2=O)nc2c(C(=O)N[C@@H]3CCCC[C@@]3(C)O)cnn12` [I-1276], with 9.00 to 9.70; and `CNc1cc(-c2cn([C@@H]3CCCOC3)c3ncccc23)nc2c(C(=O)N[C@H]3COC[C@H]3O)cnn12` [I-1185], with 8.00 to 9.00; and `CNc1cc(Nc2cccn(C3CC(F)(F)C3)c2=O)nc2c(C(=O)N[C@@H]3CCC[C@@](C)(O)C3)cnn12` [I-1208], with 8.00 to 9.00.
Turning to `CNc1cc(Nc2cccn(C3CC(F)(F)C3)c2=O)nc2c(C(=O)N[C@H]3CC[C@@H]3O)cnn12` [I-1199], the pKd is 9.00 to 9.70.
Then `CNc1cc(-c2cn(C(C)C)c3ncc(F)cc23)nc2c(C(=O)N[C@@H]3CC[C@@H]3O)cnn12` [I-1386], with 8.00 to 9.00; and `CNc1cc(Nc2cccn(C3CCOCC3)c2=O)nc2c(C(=O)N[C@H]3CCC[C@](C)(OC)C3)cnn12` [I-1200], with 9.00 to 9.70; and `CNc1cc(Nc2cc(Cl)cnc2OC(C)C)nc2c(C(=O)NC3COC3)cnn12` [I-87], with less than 8.00.
For the molecule `CNc1cc(Nc2cccc(N3CCCC3=O)n2)nc2c(C(=O)NC3COC3)cnn12` [I-88], the pKd is less than 8.00.
The molecule `CNc1cc(Nc2cccn([C@H]3C[C@@H]3F)c2=O)nc2c(C(=O)N[C@H]3CC[C@@H]3O)cnn12` [I-1278] had a pKd of 9.00 to 9.70.
Then `CNc1cc(Nc2cccn([C@@H]3CC[C@H]3O)c2=O)nc2c(C(=O)N[C@@H]3CCC[C@@H](OC)C3)cnn12` [I-1253], with less than 8.00.
The molecule `CCO[C@@H]1CC[C@H]1NC(=O)c1cnn2c(NC)cc(Nc3cccn(-c4ccccn4)c3=O)nc12` [I-1232] showed a pKd of 9.00 to 9.70.
Then `CNc1cc(Nc2cccn([C@H]3CC[C@@H]3O)c2=O)nc2c(C(=O)N[C@@H]3CCC[C@@H](OC)C3)cnn12` [I-1252], with more than 9.70; and `CCO[C@H]1CC[C@@H]1NC(=O)c1cnn2c(NC)cc(Nc3cccn(-c4ccccn4)c3=O)nc12` [I-1231], with more than 9.70.
The value for `CNc1cc(-c2cn(C3CC3)c3ncccc23)nc2c(C(=O)N[C@H]3CCC[C@]3(C)O)cnn12` [I-1281] was 9.00 to 9.70; that for `CNc1cc(Nc2cccn([C@@H]3CC[C@@H]3O)c2=O)nc2c(C(=O)N[C@H]3CC[C@@H]3OC)cnn12` [I-1351] was more than 9.70.
The value for `CNc1cc(Nc2cccn([C@@H]3CCCC[C@@H]3O)c2=O)nc2c(C(=O)N[C@H]3CC[C@@H]3OC)cnn12` [I-1338] was 9.00 to 9.70; that for `CNc1cc(Nc2cccn([C@@H]3CCC[C@@H]3O)c2=O)nc2c(C(=O)N[C@H]3CC[C@@H]3OC)cnn12` [I-1394] was more than 9.70.
As to `CNc1cc(Nc2cc3cccnc3n2C2CC2)nc2c(C(=O)N[C@@H]3CC[C@H]3OC)cnn12` [I-1324], the negative logarithm of the Kd (pKd) was more than 9.70.
For `CNc1cc(Nc2cccn([C@H]3CCC[C@H](O)C3)c2=O)nc2c(C(=O)N[C@H]3CC[C@@H]3OC)cnn12` [I-1396], the pKd was 9.00 to 9.70.
Consider `CNc1cc(Nc2cccn(C3CCOCC3)c2=O)nc2c(C(=O)N[C@@H]3CC[C@H](O)C3)cnn12` [I-1357], for which the pKd was less than 8.00.
Molecule `CNc1cc(Nc2cccn(C3CCOCC3)c2=O)nc2c(C(=O)N[C@@H]3CCCC[C@@]3(C)O)cnn12` [I-1196] showed a negative-log Kd (pKd) of 9.00 to 9.70.
Then `CNc1cc(Nc2cccn(C3CCCCC3)c2=O)nc2c(C(=O)N[C@H]3COC[C@H]3O)cnn12` [I-1349], with 8.00 to 9.00; and `CNc1cc(Nc2cccn([C@H]3C[C@@H]3OC)c2=O)nc2c(C(=O)N[C@H]3CC[C@@H]3OC)cnn12` [I-1234], with 9.00 to 9.70.
Then `CNc1cc(Nc2cccn([C@H]3CCC[C@@H](O)C3)c2=O)nc2c(C(=O)N[C@H]3CC[C@@H]3OC)cnn12` [I-1193], with more than 9.70; and `CNc1cc(-c2cn(C3CCOCC3)c3ncccc23)nc2c(C(=O)N[C@@H]3CCC[C@@H](O)C3)cnn12` (stereo in doubt) [I-1359, N-(3-hydroxycyclohexyl)-7-(methylamino)-5-(1-(tetrahydro-2H-pyran-4-yl)-1H-pyrrolo[2,3-b]pyridin-3-yl)pyrazolo[1,5-a]pyrimidine-3-carboxamide], with more than 9.70.
The value for `CNc1cc(Nc2cccn([C@@H]3CCC[C@@H]3OC)c2=O)nc2c(C(=O)NC3CC3)cnn12` [I-524] was 8.00 to 9.00; that for `CNc1cc(Nc2cccnc2OC(C)C)nc2c(C(=O)NC3COC3)cnn12` [I-86] was less than 8.00.
Regarding `CNc1cc(-c2cn(C3CC3)c3ncccc23)nc2c(C(=O)N[C@H]3CCC[C@]3(C)O)cnn12` [I-1335], the pKd was more than 9.70.
Then `CNc1cc(Nc2cccn([C@H]3C[C@@H]3F)c2=O)nc2c(C(=O)N[C@@H]3CC[C@H](O)C3)cnn12` [I-1202], with 8.00 to 9.00.
Then `CNc1cc(Nc2cccn([C@@H]3CCC[C@H](C#N)C3)c2=O)nc2c(C(=O)N[C@@H]3C[C@@H]3F)cnn12` [I-1219], with more than 9.70.
The value for `CNc1cc(Nc2cccn(C3CCOCC3)c2=O)nc2c(C(=O)N[C@H]3CC[C@H](OC)C3)cnn12` [I-1194] was more than 9.70; that for `CNc1cc(-c2cn([C@H]3CCCOC3)c3ncccc23)nc2c(C(N)=O)cnn12` [I-1256] was more than 9.70.
The molecule `CNc1cc(Nc2cccn(C(C)C)c2=O)nc2c(C(=O)N[C@H]3CCC[C@](C)(O)C3)cnn12` [I-1242] had a pKd of more than 9.70.
`CNc1cc(Nc2cccn(-c3cccnc3)c2=O)nc2c(C(=O)N[C@H]3CCC[C@H](OC)C3)cnn12` [I-1217] showed a pKd of more than 9.70.
On to `CNc1cc(Nc2cccn(C3CCCCC3)c2=O)nc2c(C(=O)N[C@@H]3COC[C@@H]3O)cnn12` [I-1348], for which the negative-log Kd (pKd) is more than 9.70.
The value for `CNc1cc(-c2cn([C@H]3CCC[C@@H]3OC)c3ncccc23)nc2c(C(=O)N[C@@H]3CC[C@@H]3O)cnn12` [I-1224, N-((1R,2S)-2-hydroxycyclobutyl)-5-(1-((1S,2S)-2-methoxycyclopentyl)-1H-pyrrolo[2,3-b]pyridin-3-yl)-7-(methylamino)pyrazolo[1,5-a]pyrimidine-3-carboxamide] was 8.00 to 9.00.
The value for `CNc1cc(Nc2cccn([C@H]3C[C@@H]3OC)c2=O)nc2c(C(=O)NC3CC3)cnn12` [I-1271] was more than 9.70; that for `CNc1cc(Nc2cccn(C(C)C)c2=O)nc2c(C(=O)N[C@H]3CC[C@@H](O)C3)cnn12` [I-1265] was 8.00 to 9.00; that for `CNc1cc(-c2cn([C@@H]3CCC[C@H]3OC)c3ncccc23)nc2c(C(=O)N[C@H]3CC[C@H]3O)cnn12` [I-1246, N-((1S,2R)-2-hydroxycyclobutyl)-5-(1-((1R,2R)-2-methoxycyclopentyl)-1H-pyrrolo[2,3-b]pyridin-3-yl)-7-(methylamino)pyrazolo[1,5-a]pyrimidine-3-carboxamide] was 9.00 to 9.70.
The value for `CNc1cc(Nc2cccn(C3CCOCC3)c2=O)nc2c(C(=O)N[C@@H]3CCC[C@@](C)(OC)C3)cnn12` [I-1201] was 9.00 to 9.70.
`CNc1cc(Nc2cc(F)cn(C3CCCOC3)c2=O)nc2c(C(=O)N[C@@H]3C[C@@H]3F)cnn12` (stereo partly shown) [I-521]: the negative logarithm of the Kd (pKd) is more than 9.70.
In turn, `CNc1cc(Nc2cccn([C@H]3CCCN(CCF)C3)c2=O)nc2c(C(=O)N[C@@H]3CC[C@H]3OC)cnn12` [I-1216] gave a negative logarithm of the Kd (pKd) of 9.00 to 9.70.
The value for `CNc1cc(Nc2cc(C)nc(C)c2)nc2c(C(N)=O)cnn12` [I-13] was 8.00 to 9.00; that for `CNc1cc(Nc2cccn([C@H]3CCCC[C@H]3OC)c2=O)nc2c(C(=O)N[C@@H]3CC[C@H]3OC)cnn12` [I-1376] was less than 8.00.
The value for `CNc1cc(Nc2cccn(-c3cccc(F)c3)c2=O)nc2c(C(=O)N[C@@H]3COC[C@@H]3O)cnn12` [I-1303] was 8.00 to 9.00.

(Values after patent publication US10508120B2, “TYK2 inhibitors and uses thereof” (Nimbus Lakshmi, Inc., priority 2017, dated 2019).)
